According to patent US12459951B2, “Compounds that interact with RAS superfamily proteins for treatment of cancers, inflammatory diseases, rasopathies, and fibrotic disease” (SHY Therapeutics, LLC, priority 2022, dated 2025):

Legend:
cdc42 = target: T1, cdc42 (Homo sapiens, UniProt P60953); assay: Cdc42 GTP Binding Domain Inhibition Assay; conditions: read-out: Cdc42: % inh.
T1 construct: made in house
Outline: (§1)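 His-tagged cdc42 or Rheb (10–30 μg/mL) bound to nickel plates, then exposed to compound (20 μM, or serial dilutions for IC50) in 1% DMSO for 3 h at room temperature, ±Sos during final hour. Cy3- or Cy5-GTP (100 nM) added for 45 min; bound labelled GTP read by fluorescence after washes.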

Rheb = target: T2, Rheb (Homo sapiens, UniProt Q15382); assay: Rheb GTP Binding Domain Inhibition Assay; conditions: read-out: Rheb: % inh.
T2 construct: made in house
T2 sequence (Q15382 whole entry, the tested form may be a part): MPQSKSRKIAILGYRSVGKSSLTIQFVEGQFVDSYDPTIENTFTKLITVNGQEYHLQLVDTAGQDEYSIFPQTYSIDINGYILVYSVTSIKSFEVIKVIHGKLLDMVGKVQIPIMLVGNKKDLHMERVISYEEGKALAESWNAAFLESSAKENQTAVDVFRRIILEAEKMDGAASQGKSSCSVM
Outline: as §1

[1] = Kinetic Solubility Assay in pH 7.4 Buffer + 2% DMSO; type: physicochemical; conditions: phosphate-buffered saline pH 7.4 with 2% DMSO, aqueous buffer, kinetic from dmso stock, 25° C., two hours
Outline: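 Compound from 20 mM DMSO stock diluted to nominal 400 μM in PBS pH 7.4 with 2% DMSO, in duplicate, shaken 2 h at 25° C., then filtered. Filtrate quantified by UV absorbance (230-550 nm) against 10-200 μM calibration curves; effective range ~2-400 μM.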

JNK phosphorylation = assay: JNK Activation Assay (western blot), Panc-1; type: cell-based, human; conditions: at 10 μM, Panc-1 pancreatic cancer cell line; starred symbols = activation
Outline: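 KRas G12C Panc-1 cells treated 6 h at 37 °C with compound at 10 μM (0.3% DMSO), or serial dilutions for IC50. In Method 1 cells were serum-starved overnight (0.5% FBS) then stimulated with 1.5 ng/ml EGF for 15 min; Method 2 used 10% FBS without stimulation. Phospho-JNK (Thr183/Tyr185) measured by western blot.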

T1 sequence (P60953 whole entry, the tested form may be a part): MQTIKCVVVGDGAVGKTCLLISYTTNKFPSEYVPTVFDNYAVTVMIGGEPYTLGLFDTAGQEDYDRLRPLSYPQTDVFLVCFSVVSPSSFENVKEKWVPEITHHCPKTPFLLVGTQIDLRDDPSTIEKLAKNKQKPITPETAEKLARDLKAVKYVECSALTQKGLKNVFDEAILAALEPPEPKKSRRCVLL

Row | Structure (SMILES) | inhibition at 20 µM (cdc42) [%] | inhibition at 20 µM (Rheb) [%] | solubility at 2 h [1] [µM] | % inh of JNK in Panc-1 (JNK phosphorylation)
1 | COc1cc(-c2cn3nc(-c4nccn4C)nc(Nc4cc(OC)ncn4)c3c2C)ccn1 [Compound 50, 6-(2-Methoxypyridin-4-yl)-N-(6-methoxypyrimidin-4-yl)-5-methyl-2-(1-methyl-1H-imidazol-2-yl)pyrrolo[2,1-f][1,2,4]triazin-4-amine] | 26 to 49 | 26 to 49 | < 10 | 
2 | Cc1c(-c2ccn(C(C)C)n2)cn2nc(-c3nccn3C)nc(Nc3ncccn3)c12 [Compound 54, 6-(1-Isopropyl-1H-pyrazol-3-yl)-5-methyl-2-(1-methyl-1H-imidazol-2-yl)-N-(pyrimidin-2-yl)pyrrolo[2,1-f][1,2,4]triazin-4-amine] | 50 to 75 | 76 to 100 | < 10 | H* (H* ≥ 100% activation)
3 | COc1ccnc(Nc2nc(-c3nccn3C)nn3cc(-c4ccn(C(C)C)n4)c(C)c23)c1 [Compound 58, 6-(1-Isopropyl-1H-pyrazol-3-yl)-N-(4-methoxypyridin-2-yl)-5-methyl-2-(1-methyl-1H-imidazol-2-yl)pyrrolo[2,1-f][1,2,4]triazin-4-amine] | 76 to 100 | 76 to 100 | 10 to 30 | H* (H* ≥ 100% activation)
4 | Cc1c(-c2ccn(C(C)C)n2)cn2nc(-c3nccn3C)nc(Nc3cnccn3)c12 [Compound 62, 6-(1-Isopropyl-1H-pyrazol-3-yl)-5-methyl-2-(1-methyl-1H-imidazol-2-yl)-N-(pyrazin-2-yl)pyrrolo[2,1-f][1,2,4]triazin-4-amine] | 1 to 25 | 0 | < 10 | H* (H* ≥ 100% activation)
5 | COc1cc(Nc2nc(-c3nccn3C)nn3cc(-c4ccn(C)n4)c(C)c23)n[nH]1 [Compound 252, N-(5-Methoxy-1H-pyrazol-3-yl)-5-methyl-2-(1-methyl-1H-imidazol-2-yl)-6-(1-methyl-1H-pyrazol-3-yl)pyrrolo[2,1-f][1,2,4]triazin-4-amine] |  |  | < 10 | 
6 | Cc1cc(Nc2nc(-c3nccn3C)nn3cc(-c4ccn(C)n4)c(C)c23)n[nH]1 [Compound 255, 5-Methyl-2-(1-methyl-1H-imidazol-2-yl)-6-(1-methyl-1H-pyrazol-3-yl)-N-(5-methyl-1H-pyrazol-3-yl)pyrrolo[2,1-f][1,2,4]triazin-4-amine] |  |  | > 30 | 
7 | Cc1c(-c2ccn(C)n2)cn2nc(-c3nccn3C)nc(Nc3cc(-c4ccccn4)[nH]n3)c12 [Compound 265, 5-Methyl-2-(1-methyl-1H-imidazol-2-yl)-6-(1-methyl-1H-pyrazol-3-yl)-N-(5-(pyridin-2-yl)-1H-pyrazol-3-yl)pyrrolo[2,1-f][1,2,4]triazin-4-amine] |  |  | < 10 | 
8 | Cc1[nH]nc(Nc2nc(-c3nccn3C)nn3cc(-c4ccn(C)n4)c(C)c23)c1C [Compound 267, N-(4,5-Dimethyl-1H-pyrazol-3-yl)-5-methyl-2-(1-methyl-1H-imidazol-2-yl)-6-(1-methyl-1H-pyrazol-3-yl)pyrrolo[2,1-f][1,2,4]triazin-4-amine] |  |  | 10 to 30 | 

Further lines, with some results ahead:

Row | inhibition at 20 µM (cdc42) [%] | inhibition at 20 µM (Rheb) [%] | solubility at 2 h [1] [µM] | Structure (SMILES) | % inh of JNK in Panc-1 (JNK phosphorylation)
9 | 50 to 75 | 76 to 100 | 10 to 30 | COc1ccnc(Nc2nc(-c3nccn3C)nn3cc(-c4ccn(C(C)C)n4)c(C)c23)n1 [Compound 53, 6-(1-Isopropyl-1H-pyrazol-3-yl)-N-(4-methoxypyrimidin-2-yl)-5-methyl-2-(1-methyl-1H-imidazol-2-yl)pyrrolo[2,1-f][1,2,4]triazin-4-amine] | H* (H* ≥ 100% activation)
10 | 50 to 75 | 76 to 100 | 10 to 30 | Cc1c(-c2ccn(C(C)C)n2)cn2nc(-c3nccn3C)nc(Nc3ccncn3)c12 [Compound 55, 6-(1-Isopropyl-1H-pyrazol-3-yl)-5-methyl-2-(1-methyl-1H-imidazol-2-yl)-N-(pyrimidin-4-yl)pyrrolo[2,1-f][1,2,4]triazin-4-amine] | H* (H* ≥ 100% activation)
11 | 76 to 100 | 76 to 100 | 10 to 30 | Cc1c(-c2ccn(C(C)C)n2)cn2nc(-c3nccn3C)nc(Nc3ccccn3)c12 [Compound 57, 6-(1-Isopropyl-1H-pyrazol-3-yl)-5-methyl-2-(1-methyl-1H-imidazol-2-yl)-N-(pyridin-2-yl)pyrrolo[2,1-f][1,2,4]triazin-4-amine] | H* (H* ≥ 100% activation)
12 | 50 to 75 | 50 to 75 | < 10 | Cc1c(-c2ccn(C(C)C)n2)cn2nc(-c3nccn3C)nc(Nc3nnco3)c12 [Compound 59, N-(6-(1-Isopropyl-1H-pyrazol-3-yl)-5-methyl-2-(1-methyl-1H-imidazol-2-yl)pyrrolo[2,1-f][1,2,4]triazin-4-yl)-1,3,4-oxadiazol-2-amine] | H* (H* ≥ 100% activation)
13 | 76 to 100 | 50 to 75 | < 10 | COc1cc(Nc2nc(-c3nccn3C)nn3cc(-c4ccn(C)n4)c(C)c23)ncn1 [Compound 63, N-(6-Methoxypyrimidin-4-yl)-5-methyl-2-(1-methyl-1H-imidazol-2-yl)-6-(1-methyl-1H-pyrazol-3-yl)pyrrolo[2,1-f][1,2,4]triazin-4-amine] | H* (H* ≥ 100% activation)
14 |  |  | < 10 | Cc1c(-c2ccn(C)n2)cn2nc(-c3nccn3C)nc(Nc3cc(-c4cccnc4)ccn3)c12 [Compound 250, N-([3,4′-Bipyridin]-2′-yl)-5-methyl-2-(1-methyl-1H-imidazol-2-yl)-6-(1-methyl-1H-pyrazol-3-yl)pyrrolo[2,1-f][1,2,4]triazin-4-amine] | 
15 |  |  | < 10 | CCOc1cc(Nc2nc(-c3nccn3C)nn3cc(-c4ccn(C)n4)c(C)c23)n[nH]1 [Compound 260, N-(5-Ethoxy-1H-pyrazol-3-yl)-5-methyl-2-(1-methyl-1H-imidazol-2-yl)-6-(1-methyl-1H-pyrazol-3-yl)pyrrolo[2,1-f][1,2,4]triazin-4-amine] | 
16 |  |  | < 10 | Cc1c(-c2ccn(C)n2)cn2nc(-c3nccn3C)nc(Nc3cc(C(C)C)[nH]n3)c12 [Compound 268, N-(5-Isopropyl-1H-pyrazol-3-yl)-5-methyl-2-(1-methyl-1H-imidazol-2-yl)-6-(1-methyl-1H-pyrazol-3-yl)pyrrolo[2,1-f][1,2,4]triazin-4-amine] | 
